In brackets after ≈: the same amount, converted by molar mass. Non-standard residues stand in square brackets, D forms with d. Residues, ends and D or L forms follow the SMILES beside them. Orn = NCCC[C@H](N)C(=O)O
What was measured:
Assay type in all cases: functional
Bacillus subtilis [1] = experiment: Inhibitory activity was determined against bacillus subtilis (ATCC 82)
[2] = Tested for minimum concentration for hemolysis of fresh human erythrocytes
Bacillus subtilis [3] = experiment: Ratio of minimum hemolysis concentration to that of minimum inhibitory concentration

Row | MIC (Bacillus subtilis [1]) [µg/mL] | SMILES | MHC [2] [µg/mL] | Ratio (Bacillus subtilis [3])
1 | 1.8 (≈ 1.43 µM) | CC[C@H](C)[C@@H]1NC(=O)[C@H](CC(N)=O)NC(=O)[C@@H](Cc2ccccc2)NC(=O)[C@H](Cc2ccccc2)NC(=O)[C@@H]2CCCN2C(=O)[C@@H](Cc2ccccc2)NC(=O)[C@H](CC(C)C)NC(=O)[C@H](CCCN)NC(=O)[C@H](C(C)C)NC(=O)[C@H](Cc2ccc(O)cc2)NC1=O | 45 | 25
2 | 15 (≈ 12.1 µM) | CC(C)C[C@@H]1NC(=O)[C@H](CCCN)NC(=O)[C@H](C)NC(=O)[C@H](Cc2ccc(O)cc2)NC(=O)[C@H](CCC(N)=O)NC(=O)[C@H](CC(N)=O)NC(=O)[C@@H](Cc2ccccc2)NC(=O)[C@H](Cc2ccccc2)NC(=O)[C@@H]2CCCN2C(=O)[C@@H](Cc2ccccc2)NC1=O | 16 | 1.1
3 | 13 (≈ 10.6 µM) | CC(C)C[C@@H]1NC(=O)[C@H](C)NC(=O)[C@H](C(C)C)NC(=O)[C@H](Cc2ccc(O)cc2)NC(=O)[C@H](CCC(N)=O)NC(=O)[C@H](CC(N)=O)NC(=O)[C@@H](Cc2ccccc2)NC(=O)[C@H](Cc2ccccc2)NC(=O)[C@@H]2CCCN2C(=O)[C@@H](Cc2ccccc2)NC1=O | 13 | 1
4 | 0.3 (≈ 0.239 µM) | CC(C)C[C@@H]1NC(=O)[C@H](CC(N)=O)NC(=O)[C@@H](Cc2ccccc2)NC(=O)[C@H](Cc2ccccc2)NC(=O)[C@@H]2CCCN2C(=O)[C@@H](Cc2ccccc2)NC(=O)[C@H](CC(C)C)NC(=O)[C@H](CCCN)NC(=O)[C@H](C(C)C)NC(=O)[C@H](Cc2ccc(O)cc2)NC1=O | 20 | 67
5 | 2.9 (≈ 2.34 µM) | CC(C)C[C@@H]1NC(=O)[C@H](CCCN)NC(=O)[C@H](C(C)C)NC(=O)[C@H](Cc2ccc(O)cc2)NC(=O)[C@H](C(C)C)NC(=O)[C@H](CC(N)=O)NC(=O)[C@@H](Cc2ccccc2)NC(=O)[C@H](Cc2ccccc2)NC(=O)[C@@H]2CCCN2C(=O)[C@@H](Cc2ccccc2)NC1=O | 35 | 12
6 | 0.4 (≈ 0.318 µM) | CC(C)C[C@@H]1NC(=O)[C@H](CCCN)NC(=O)[C@H](C(C)C)NC(=O)[C@H](Cc2ccc(O)cc2)NC(=O)[C@H](CC(N)=O)NC(=O)[C@H](CC(N)=O)NC(=O)[C@@H](Cc2ccccc2)NC(=O)[C@H](Cc2ccccc2)NC(=O)[C@@H]2CCCN2C(=O)[C@@H](Cc2ccccc2)NC1=O | 20 | 50
7 | 0.3 (≈ 0.231 µM) | CC(C)C[C@@H]1NC(=O)[C@H](CCCN)NC(=O)[C@H](C(C)C)NC(=O)[C@H](Cc2ccc(O)cc2)NC(=O)[C@H](CCCN=C(N)N)NC(=O)[C@H](CC(N)=O)NC(=O)[C@@H](Cc2ccccc2)NC(=O)[C@H](Cc2ccccc2)NC(=O)[C@@H]2CCCN2C(=O)[C@@H](Cc2ccccc2)NC1=O | 42 | 140
8 | 5.3 (≈ 4.21 µM) | CC(C)C[C@@H]1NC(=O)[C@H](CCCN)NC(=O)[C@H](C(C)C)NC(=O)[C@H](Cc2ccc(O)cc2)NC(=O)[C@H](CC(=O)O)NC(=O)[C@H](CC(N)=O)NC(=O)[C@@H](Cc2ccccc2)NC(=O)[C@H](Cc2ccccc2)NC(=O)[C@@H]2CCCN2C(=O)[C@@H](Cc2ccccc2)NC1=O | 32 | 6
9 | 5 (≈ 3.83 µM) | CC(C)C[C@@H]1NC(=O)[C@H](CCCN)NC(=O)[C@H](C(C)C)NC(=O)[C@H](Cc2ccc(O)cc2)NC(=O)[C@H](Cc2ccc(O)cc2)NC(=O)[C@H](CC(N)=O)NC(=O)[C@@H](Cc2ccccc2)NC(=O)[C@H](Cc2ccccc2)NC(=O)[C@@H]2CCCN2C(=O)[C@@H](Cc2ccccc2)NC1=O | 120 | 24
10 | 0.3 (≈ 0.244 µM) | CC(C)C[C@@H]1NC(=O)[C@H](CCCN)NC(=O)[C@H](C(C)C)NC(=O)[C@H](Cc2ccc(O)cc2)NC(=O)[C@H](CO)NC(=O)[C@H](CC(N)=O)NC(=O)[C@@H](Cc2ccccc2)NC(=O)[C@H](Cc2ccccc2)NC(=O)[C@@H]2CCCN2C(=O)[C@@H](Cc2ccccc2)NC1=O | 16 | 53
11 | 25 (≈ 20.4 µM) | CC(C)[C@@H]1NC(=O)[C@H](Cc2ccc(O)cc2)NC(=O)[C@H](CCC(N)=O)NC(=O)[C@H](CC(N)=O)NC(=O)[C@@H](Cc2ccccc2)NC(=O)[C@H](Cc2ccccc2)NC(=O)[C@@H]2CCCN2C(=O)[C@@H](Cc2ccccc2)NC(=O)[C@H](C)NC(=O)[C@H](CCCN)NC1=O | 50 | 2
12 | 19 (≈ 15.9 µM) | CC(C)C[C@@H]1NC(=O)[C@H](CCCN)NC(=O)[C@H](C(C)C)NC(=O)[C@H](Cc2ccc(O)cc2)NC(=O)[C@H](CCC(N)=O)NC(=O)[C@H](CC(N)=O)NC(=O)[C@@H](Cc2ccccc2)NC(=O)[C@H](C)NC(=O)[C@@H]2CCCN2C(=O)[C@@H](Cc2ccccc2)NC1=O | 47 | 2.5
13 | 7.5 (≈ 5.9 µM) | CC(C)C[C@@H]1NC(=O)[C@H](CCCN)NC(=O)[C@H](C(C)C)NC(=O)[C@H](Cc2ccc(O)cc2)NC(=O)[C@H](CCC(=O)O)NC(=O)[C@H](CC(N)=O)NC(=O)[C@@H](Cc2ccccc2)NC(=O)[C@H](Cc2ccccc2)NC(=O)[C@@H]2CCCN2C(=O)[C@@H](Cc2ccccc2)NC1=O | 30 | 4
14 | 14 (≈ 11.9 µM) | CC(C)C[C@@H]1NC(=O)[C@H](CCCN)NC(=O)[C@H](C(C)C)NC(=O)[C@H](C)NC(=O)[C@H](CCC(N)=O)NC(=O)[C@H](CC(N)=O)NC(=O)[C@@H](Cc2ccccc2)NC(=O)[C@H](Cc2ccccc2)NC(=O)[C@@H]2CCCN2C(=O)[C@@H](Cc2ccccc2)NC1=O | 14 | 1
15 | 15 (≈ 12.6 µM) | CC(C)C[C@@H]1NC(=O)[C@H](CCCN)NC(=O)[C@H](C(C)C)NC(=O)[C@H](Cc2ccc(O)cc2)NC(=O)[C@H](CCC(N)=O)NC(=O)[C@H](CC(N)=O)NC(=O)[C@@H](Cc2ccccc2)NC(=O)[C@H](Cc2ccccc2)NC(=O)[C@@H]2CCCN2C(=O)[C@@H](C)NC1=O | 20 | 1.3
16 | 10 (≈ 8.37 µM) | CC(C)C[C@@H]1NC(=O)[C@H](CCCN)NC(=O)[C@H](C(C)C)NC(=O)[C@H](Cc2ccc(O)cc2)NC(=O)[C@H](CCC(N)=O)NC(=O)[C@H](CC(N)=O)NC(=O)[C@@H](C)NC(=O)[C@H](Cc2ccccc2)NC(=O)[C@@H]2CCCN2C(=O)[C@@H](Cc2ccccc2)NC1=O | 47 | 4.7
17 | 0.6 (≈ 0.465 µM) | CC(C)C[C@@H]1NC(=O)[C@H](CCCN)NC(=O)[C@H](C(C)C)NC(=O)[C@H](Cc2ccc(O)cc2)NC(=O)[C@H](Cc2ccccc2)NC(=O)[C@H](CC(N)=O)NC(=O)[C@@H](Cc2ccccc2)NC(=O)[C@H](Cc2ccccc2)NC(=O)[C@@H]2CCCN2C(=O)[C@@H](Cc2ccccc2)NC1=O | 18 | 30
18 | 1.5 (≈ 1.24 µM) | CC(C)C[C@@H]1NC(=O)[C@H](CCCN)NC(=O)[C@H](C(C)C)NC(=O)[C@H](Cc2ccc(O)cc2)NC(=O)[C@H](C)NC(=O)[C@H](CC(N)=O)NC(=O)[C@@H](Cc2ccccc2)NC(=O)[C@H](Cc2ccccc2)NC(=O)[C@@H]2CCCN2C(=O)[C@@H](Cc2ccccc2)NC1=O | 28 | 19
19 | 3.8 (≈ 2.86 µM) | CC(C)C[C@@H]1NC(=O)[C@H](CCCN)NC(=O)[C@H](C(C)C)NC(=O)[C@H](Cc2ccc(O)cc2)NC(=O)[C@H](Cc2c[nH]c3ccccc23)NC(=O)[C@H](CC(N)=O)NC(=O)[C@@H](Cc2ccccc2)NC(=O)[C@H](Cc2ccccc2)NC(=O)[C@@H]2CCCN2C(=O)[C@@H](Cc2ccccc2)NC1=O | 125 | 33
20 | 18 (≈ 14.5 µM) | CC(C)C[C@@H]1NC(=O)[C@H](CCCN)NC(=O)[C@H](C(C)C)NC(=O)[C@H](Cc2ccc(O)cc2)NC(=O)[C@H](CCC(N)=O)NC(=O)[C@H](CC(N)=O)NC(=O)[C@@H](Cc2ccccc2)NC(=O)[C@H](Cc2ccccc2)NC(=O)[C@H](C)NC(=O)[C@@H](Cc2ccccc2)NC1=O | 53 | 2.9
21 | 15 (≈ 12.2 µM) | CC(C)C[C@@H]1NC(=O)[C@H](CCCN)NC(=O)[C@H](C(C)C)NC(=O)[C@H](Cc2ccc(O)cc2)NC(=O)[C@H](CCC(N)=O)NC(=O)[C@H](C)NC(=O)[C@@H](Cc2ccccc2)NC(=O)[C@H](Cc2ccccc2)NC(=O)[C@@H]2CCCN2C(=O)[C@@H](Cc2ccccc2)NC1=O | 39 | 2.6
22 | 1.1 (≈ 0.866 µM) | CC(C)C[C@@H]1NC(=O)[C@H](CCCN)NC(=O)[C@H](C(C)C)NC(=O)[C@H](Cc2ccc(O)cc2)NC(=O)[C@H](CCCCN)NC(=O)[C@H](CC(N)=O)NC(=O)[C@@H](Cc2ccccc2)NC(=O)[C@H](Cc2ccccc2)NC(=O)[C@@H]2CCCN2C(=O)[C@@H](Cc2ccccc2)NC1=O (cyclo(F[dF]NKYV[Orn]L[dF]P)) | 99 | 90
23 | 0.2 (≈ 0.159 µM) | CC(C)C[C@@H]1NC(=O)[C@H](CCCN)NC(=O)[C@H](C(C)C)NC(=O)[C@H](Cc2ccc(O)cc2)NC(=O)[C@H](CCCN)NC(=O)[C@H](CC(N)=O)NC(=O)[C@@H](Cc2ccccc2)NC(=O)[C@H](Cc2ccccc2)NC(=O)[C@@H]2CCCN2C(=O)[C@@H](Cc2ccccc2)NC1=O (cyclo(F[dF]N[Orn]YV[Orn]L[dF]P)) | 25 | 125
24 | 8.3 (≈ 6.53 µM) | CC(C)C[C@@H]1NC(=O)[C@H](CCCN)NC(=O)[C@H](C(C)C)NC(=O)[C@H](Cc2ccc(O)cc2)NC(=O)[C@H](CCC(N)=O)NC(=O)[C@H](CC(N)=O)NC(=O)[C@@H](Cc2ccccc2)NC(=O)[C@H](Cc2ccccc2)NC(=O)[C@@H]2CCCN2C(=O)[C@@H](Cc2ccccc2)NC1=O [TYROCIDINE A] (cyclo(F[dF]NQYV[Orn]L[dF]P)) | 8.2 | 1

— ChEMBL document CHEMBL1145752, “Dissociation of antibacterial and hemolytic activities of an amphipathic peptide antibiotic” (2003)
